Results as given in US7786152B2, “Compound” (priority 2002, dated 2010).

Assays:
Human 11βHSD1 = target: T1, Human 11βHSD1 (Homo sapiens, UniProt P28845); assay: 11β HSD1 cortisol radioimmunoassay (RIA) with human hepatic microsomes; type: biochemical; conditions: RIA format; Lineweaver-Burke; Buffer 3, 10 μg/well microsomal protein, 30 min; read-out: apparent Km
T1 construct: the enzyme source, native hepatic enzyme compared to recombinant enzyme; tissue XenoTech H0610/Lot 0210078; host or cells: human hepatic microsomes
T1 sequence (P28845 whole entry): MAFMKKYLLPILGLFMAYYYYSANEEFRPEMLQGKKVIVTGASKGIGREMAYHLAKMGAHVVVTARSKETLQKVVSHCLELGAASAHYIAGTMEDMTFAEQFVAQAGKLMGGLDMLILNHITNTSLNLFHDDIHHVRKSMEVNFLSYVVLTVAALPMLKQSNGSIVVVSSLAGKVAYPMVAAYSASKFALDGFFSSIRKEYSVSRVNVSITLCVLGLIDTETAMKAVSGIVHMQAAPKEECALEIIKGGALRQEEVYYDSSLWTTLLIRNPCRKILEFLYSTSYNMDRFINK
Method: Biological Assay Development Using Human 11β-Hydroxysteroid Dehydrogenase Type 1. Standard Operating Procedure for the 11β-Hydroxysteroid Dehydrogenase Type 1 Cortisol Radioimmunoassay. 11β HSD1 Cortisol RIA
Enzyme assay buffer: 30 mM Tris-HCL, pH 7.2 containing 1 mM EDTA
Antibody binding buffer: 50 mM Tris-HCL, pH 8, containing 0.1 M NaCl and 0.1% gelatin
Dilute into assay buffer 1 in 25. Also dilute neat DMSO 1 in 25 into assay buffer for controls.
Dilute this 1 in 50 into assay buffer.
Prepare NADPH as a 1.8 mg/ml solution in assay buffer.
Mix these 3 solutions 1:1:1 to make a solution of sufficient volume for 25 μl additions to each sample. Add 0.5 μCi tritiated cortisone per 25 μl and mix the solution well.
Microsome preparation: Dilute stock 20 mg/ml solution 1 in 100 with assay buffer.
Dextran coated charcoal preparation: Make a 20 mg/ml solution in antibody binding buffer and chill on ice.
Enzyme assay: To a u-bottom polypropylene 96 well plate add:
25 μl compound dilution or diluted DMSO to controls, NSB's and blanks
10 μl 1 mM GA in DMSO (enzyme stop solution) to blanks
25 μl substrate mixture to all samples
50 μl diluted microsomes to all samples
Incubate plate for 30 min at 37° C. shaking
Add 10 μl enzyme stop solution to all wells except the blanks
Add 100 μl antibody solution to all wells except the NSB's, add antibody binding buffer to these wells
Incubate at 37° C. for 1 h
Chill plate on ice for 15 min
Add 50 μl/well charcoal solution and mix with an 8-channel pipette (4-5 aspirations)
Centrifuge at 4° C., 2000×g for 15 min
Transfer 100 μl supernatant into an Optiplate, also add 25 μl substrate mixture to 2 empty wells to indicate counting efficiency
Add 200 μl Microscint-40 to all wells and count on a Topcount
The 11β HSD1 enzyme assay was carried out following the standard operating procedure described above in u-bottom polypropylene 96 well plates or 1.5 ml Eppendorf tubes as indicated for each experiment. Subsequent to stopping the enzyme reaction, 100 μl antibody prepared in buffer 3 unless otherwise indicated was added to test samples and 100 μl buffer 3 was added to the NSB samples. The samples were incubated for 1 hour at 37° C. and the chilled on ice for 15 mins. Dextran coated charcoal (50 μl/sample) prepared to the indicated concentration in buffer 3 was added and the samples were mixed (vortex for tubes and aspiration 5 times with an 8-channel pipette for 96 well plates) and chilled for a further 10 min. The samples were centrifuged at 2000×g for 15 min at 4° C. to pellet the charcoal. Aliquots of the supernatant (100 μl) were transferred to an Optiplate and counted on the Topcount in 150-200 μl Microscint 40. In some experiments, aliquots of supernatant were transferred to scintillation vials and counted on the Tricarb LSC in 5 ml Ultima Gold scintillant.
Substrate saturation was examined. The enzyme assay was carried out exactly described in the methods section, in Buffer 3 with 10 μg/well microsomal protein and with [cold cortisone] as indicated. [3H]-cortisone was 0.5 μCi/sample throughout. The reaction was stopped after 30 min by the addition of 10 μl stop solution. The RIA was carried out exactly as indicated in the methods section.
It is reported that DMSO can both increase and reduce microsomal enzyme activity, depending on the concentration, presumably due to effects on the microsomal membranes.

[1] = target: T2, human hepatic microsomal 11β-HSD1 (Homo sapiens, UniProt P28845); assay: 11β HSD1 TLC format assay with human hepatic microsomes; type: biochemical; conditions: Lineweaver-Burke, 10 μg microsomal protein, 30 minutes at 37° C., read-out: apparent Km for cortisone
T2 construct: the enzyme source, native hepatic enzyme compared to recombinant enzyme; tissue XenoTech H0610/Lot 0210078; host or cells: human hepatic microsomes
T2 sequence (P28845 whole entry): as above
Method: 11β-HSD1 activity in rat and human hepatic microsomes was evaluated, to determine the minimum microsomal protein concentrations required for measurement of enzyme activity. […] The assay was performed in Buffer 2 and the cortisone concentration used was 2 μM containing 0.5 μCi [^3H]-cortisone per incubation. Microsomes were tested at concentrations ranging from 50 μg to 400 μg protein per incubation in a final incubation volume of 100 μl in glass tubes. Samples were incubated for 1 h in a shaking water bath at 37° C. and the assay was stopped by addition of 1 ml ethyl acetate. To correct for recovery, 50 μl [^14C]-cortisol was added to the samples followed by 200 μl 0.05% CaCl2. The samples were vortex mixed and centrifuged as described above. The upper organic phase was removed and dried down, and the residue dissolved in 100 μl methanol and 50 μl aliquots were spotted onto TLC plates, which were run as described above. Samples were counted on a TriCarb liquid scintillation counter using a dual label programme. Recovery efficiency was determined from the DPM obtained in 50 μl [^14C]-cortisol solution, which was counted with the samples.
Lower human microsome protein concentrations were evaluated; 3.7 μg to 100 μg per sample. The time course of activity was also determined, from 0 to 60 minutes at 37° C. The extraction conditions were as described above. […]

`C[C@]12CCC(=O)C=C1CC[C@@H]1[C@@H]2C(=O)C[C@@]2(C)[C@H]1CC[C@]2(O)C(=O)CO` [cortisone, reference compound] was tested, and the Km (Human 11βHSD1) was 0.7 µM and the Km [1] was 0.66 µM.
